Measured values: patent US12685735B2 (Foghorn Therapeutics Inc., priority 2020, dated 2026)

What was measured:
[1] = target: BRG-1 (Homo sapiens, UniProt P51532); assay: ATPase catalytic activity assay of BRG-1 (ADP-Glo); type: biochemical; conditions: ATPase catalytic activity, ADP-Glo; for IC50: read-out: BRG1 IC50 (μM)*; for Emax: read-out: BRG1 Max % Inhibition
Procedure, shortened: (§1)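 Once the enzyme reaction finished, residual ATP is removed with ADP-Glo Reagent over 40 minutes at room temperature. Kinase Detection Reagent then converts product ADP into ATP during a 60-minute room-temperature incubation, and the luciferase signal is read.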

[2] = target: BRM (Homo sapiens, UniProt P51531); assay: ATPase catalytic activity assay of BRM (ADP-Glo); type: biochemical; conditions: for IC50: read-out: BRM IC50 (μM)*
Procedure, shortened: as §1

BRG-1, sequence (P51532 whole entry): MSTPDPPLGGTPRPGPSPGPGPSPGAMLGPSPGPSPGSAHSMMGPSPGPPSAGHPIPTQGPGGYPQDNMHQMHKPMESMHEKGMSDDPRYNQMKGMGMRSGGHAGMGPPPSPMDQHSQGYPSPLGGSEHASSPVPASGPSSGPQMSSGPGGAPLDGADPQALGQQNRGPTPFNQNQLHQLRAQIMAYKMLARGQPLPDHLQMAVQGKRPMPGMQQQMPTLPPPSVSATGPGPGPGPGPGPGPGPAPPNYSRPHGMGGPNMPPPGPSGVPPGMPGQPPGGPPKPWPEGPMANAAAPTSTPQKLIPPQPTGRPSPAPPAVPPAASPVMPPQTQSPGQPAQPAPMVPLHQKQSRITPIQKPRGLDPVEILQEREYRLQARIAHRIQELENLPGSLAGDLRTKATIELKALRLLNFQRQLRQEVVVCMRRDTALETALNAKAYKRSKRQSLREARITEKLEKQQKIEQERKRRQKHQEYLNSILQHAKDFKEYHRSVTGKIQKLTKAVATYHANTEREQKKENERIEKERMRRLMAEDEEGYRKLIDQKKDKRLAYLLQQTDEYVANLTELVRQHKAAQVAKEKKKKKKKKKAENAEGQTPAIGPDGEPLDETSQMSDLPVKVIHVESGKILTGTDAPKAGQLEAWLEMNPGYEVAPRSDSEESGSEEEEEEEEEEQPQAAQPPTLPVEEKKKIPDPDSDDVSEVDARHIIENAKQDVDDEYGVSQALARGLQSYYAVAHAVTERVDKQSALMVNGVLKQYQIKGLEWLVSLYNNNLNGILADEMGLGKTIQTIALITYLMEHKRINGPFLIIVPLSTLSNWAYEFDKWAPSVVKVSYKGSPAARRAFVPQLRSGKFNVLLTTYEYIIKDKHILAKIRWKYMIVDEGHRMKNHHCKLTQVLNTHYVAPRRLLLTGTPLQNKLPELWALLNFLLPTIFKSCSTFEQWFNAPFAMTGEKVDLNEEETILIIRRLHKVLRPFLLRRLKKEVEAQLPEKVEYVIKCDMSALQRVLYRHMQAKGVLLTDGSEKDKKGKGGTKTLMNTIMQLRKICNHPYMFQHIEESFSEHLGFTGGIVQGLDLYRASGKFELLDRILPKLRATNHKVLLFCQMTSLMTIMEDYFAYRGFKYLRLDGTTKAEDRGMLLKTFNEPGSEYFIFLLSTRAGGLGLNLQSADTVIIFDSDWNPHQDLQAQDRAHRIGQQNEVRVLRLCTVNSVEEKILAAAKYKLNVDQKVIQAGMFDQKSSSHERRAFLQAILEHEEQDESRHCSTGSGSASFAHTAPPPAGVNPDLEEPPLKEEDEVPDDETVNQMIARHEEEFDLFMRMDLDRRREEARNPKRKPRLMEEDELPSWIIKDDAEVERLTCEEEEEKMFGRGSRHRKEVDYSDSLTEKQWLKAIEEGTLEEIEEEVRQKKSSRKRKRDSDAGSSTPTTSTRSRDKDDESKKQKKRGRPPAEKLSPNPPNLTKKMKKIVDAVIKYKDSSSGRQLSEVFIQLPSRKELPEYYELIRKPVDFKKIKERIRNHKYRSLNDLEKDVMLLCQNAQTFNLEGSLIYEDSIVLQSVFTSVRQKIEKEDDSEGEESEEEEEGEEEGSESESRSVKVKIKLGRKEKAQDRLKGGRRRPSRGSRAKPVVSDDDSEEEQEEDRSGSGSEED
BRM, sequence (P51531 whole entry): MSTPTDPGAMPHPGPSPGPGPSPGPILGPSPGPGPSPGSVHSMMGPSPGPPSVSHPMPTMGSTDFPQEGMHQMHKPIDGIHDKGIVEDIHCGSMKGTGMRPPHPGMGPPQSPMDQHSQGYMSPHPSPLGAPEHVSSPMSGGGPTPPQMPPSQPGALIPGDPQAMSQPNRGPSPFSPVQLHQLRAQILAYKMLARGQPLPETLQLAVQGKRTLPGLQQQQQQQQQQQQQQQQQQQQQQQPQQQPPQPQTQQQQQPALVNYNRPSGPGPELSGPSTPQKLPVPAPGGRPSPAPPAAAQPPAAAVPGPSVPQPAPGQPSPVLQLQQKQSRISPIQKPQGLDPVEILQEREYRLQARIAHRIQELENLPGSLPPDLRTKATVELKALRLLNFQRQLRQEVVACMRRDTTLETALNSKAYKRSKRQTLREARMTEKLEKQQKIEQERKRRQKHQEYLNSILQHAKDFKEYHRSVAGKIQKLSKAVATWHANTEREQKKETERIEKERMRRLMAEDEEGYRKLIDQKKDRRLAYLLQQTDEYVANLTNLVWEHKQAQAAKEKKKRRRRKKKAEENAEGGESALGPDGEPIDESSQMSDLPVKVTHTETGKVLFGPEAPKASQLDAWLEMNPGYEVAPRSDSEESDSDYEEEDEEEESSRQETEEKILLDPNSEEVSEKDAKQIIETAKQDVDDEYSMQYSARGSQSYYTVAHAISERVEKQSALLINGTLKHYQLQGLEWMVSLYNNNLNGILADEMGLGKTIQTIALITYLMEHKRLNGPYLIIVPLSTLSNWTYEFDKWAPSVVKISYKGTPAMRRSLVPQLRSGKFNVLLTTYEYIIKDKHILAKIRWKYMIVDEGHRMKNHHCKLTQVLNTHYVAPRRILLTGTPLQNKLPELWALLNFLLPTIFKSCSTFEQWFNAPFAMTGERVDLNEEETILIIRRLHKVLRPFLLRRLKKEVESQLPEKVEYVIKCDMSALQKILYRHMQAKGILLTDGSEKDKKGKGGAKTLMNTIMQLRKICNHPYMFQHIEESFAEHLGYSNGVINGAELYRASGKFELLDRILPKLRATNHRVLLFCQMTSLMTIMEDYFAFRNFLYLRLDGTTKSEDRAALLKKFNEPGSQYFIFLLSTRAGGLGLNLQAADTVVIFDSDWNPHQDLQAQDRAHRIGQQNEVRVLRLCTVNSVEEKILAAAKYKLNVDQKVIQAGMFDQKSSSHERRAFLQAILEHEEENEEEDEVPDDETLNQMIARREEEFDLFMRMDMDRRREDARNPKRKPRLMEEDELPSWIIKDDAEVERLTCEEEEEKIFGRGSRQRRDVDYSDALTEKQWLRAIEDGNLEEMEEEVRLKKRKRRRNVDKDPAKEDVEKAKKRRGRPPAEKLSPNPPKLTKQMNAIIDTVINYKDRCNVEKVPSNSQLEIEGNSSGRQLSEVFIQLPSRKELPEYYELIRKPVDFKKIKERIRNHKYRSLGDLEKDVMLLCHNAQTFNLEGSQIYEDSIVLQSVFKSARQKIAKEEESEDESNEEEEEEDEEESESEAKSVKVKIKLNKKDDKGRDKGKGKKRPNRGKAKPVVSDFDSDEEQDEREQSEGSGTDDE

| SMILES | IC50 [1] [µM] | Emax [1] [%] | BRM Max % Inhibition [2] [%] | IC50 [2] [µM] | BRG1 Max % Inhibition [1] [%] |
| --- | --- | --- | --- | --- | --- |
| Cn1cc(-c2cccc(-c3csc(NC(=O)CNC(=O)c4cccc(C(C)(C)CO)c4)n3)c2)cn1 [Compound 104] | 1 to 5 | > 70 | >90 | 0.1 to 1 | – |
| CC(C)(CO)c1cccc(C(=O)NCC(=O)Nc2nc(-c3cccc(C#N)c3)cs2)c1 [Compound 106] | 1 to 5 | > 30 | >80 | 1 to 5 | – |
| O=C(CNC(=O)c1ccc2c(c1)C1(CCNC1=O)CC2)Nc1nc(-c2cccc(-c3ccncc3)c2)cs1 (centres unmarked) [Compound 108] | 1 to 5 | > 80 | >95 | 0.1 to 1 | – |
| C[C@@H](N)C(C)(C)c1cccc(C(=O)NCC(=O)Nc2nc(-c3cccc(-c4ccncc4)c3)cs2)c1 [Compound 109] | 1 to 5 | > 50 | >80 | 1 to 5 | – |
| Cc1cc(-c2cccc(-c3csc(NC(=O)CNC(=O)c4ccc(C)c(S(=O)(=O)C(C)C)c4)n3)n2)ncn1 [Compound 110, 3-isopropylsulfonyl-4-methyl-N-[2-[[4-[6-(6-methylpyrimidin-4-yl)-2-pyridyl]thiazol-2-yl]amino]-2-oxo-ethyl]benzamide] | 0.1 to 1 | > 80 | >95 | < 0.1 | – |
| CC(=O)NCc1cccc(-c2cccc(-c3csc(NC(=O)CNC(=O)c4cccc(S(=O)(=O)C(C)C)c4)n3)c2)c1 [Compound 111, N-(2-((4-(3′-(acetamidomethyl)-[1,1′-biphenyl]-3-yl)thiazol-2-yl)amino)-2-oxoethyl)-3-(isopropylsulfonyl) benzamide] | > 5 | > 40 | >90 | 0.1 to 1 | – |
| CC(C(F)(F)F)S(=O)(=O)c1cccc(C(=O)NCC(=O)Nc2nc(-c3cccc(-c4ccncc4)c3)cs2)c1 (centres unmarked) [Compound 112] | 0.1 to 1 | > 50 | >80 | 0.1 to 1 | – |
| CC(C(F)(F)F)S(=O)(=O)c1cccc(C(=O)NCC(=O)Nc2nc(-c3cccc(-c4ccncc4)c3)cs2)c1 (centres unmarked) [Compound 113, N-(2-oxo-2-((4-(3-(pyridin-4-yl)phenyl)thiazol-2-yl)amino)ethyl)-3-((1,1,1-trifluoropropan-2-yl)sulfonyl)benzamide] | 0.1 to 1 | – | >80 | 0.1 to 1 | >50 |
| Cc1cc(-c2cccc(-c3csc(NC(=O)CNC(=O)c4cccc(S(=O)(=O)C(C)CN)c4)n3)c2)cc(C)n1 (centres unmarked) [Compound 114, 3-((1-aminopropan-2-yl)sulfonyl)-N-(2-((4-(3-(2,6-dimethylpyridin-4-yl)phenyl)thiazol-2-yl)amino)-2-oxoethyl)benzamide] | 0.1 to 1 | > 95 | >90 | < 0.1 | – |
| C[C@@H](CO)S(=O)(=O)c1cccc(C(=O)NCC(=O)Nc2nc(-c3cccc(-c4ccncc4)c3)cs2)c1 [Compound 115, (S)-3-((1-hydroxypropan-2-yl)sulfonyl)-N-(2-oxo-2-((4-(3-(pyridin-4-yl)phenyl)thiazol-2-yl)amino)ethyl)benzamide] | < 0.1 | > 95 | >95 | < 0.1 | – |
| C[C@H](CO)S(=O)(=O)c1cccc(C(=O)NCC(=O)Nc2nc(-c3cccc(-c4ccncc4)c3)cs2)c1 [Compound 116, (R)-3-((1-hydroxypropan-2-yl)sulfonyl)-N-(2-oxo-2-((4-(3-(pyridin-4-yl)phenyl)thiazol-2-yl)amino)ethyl)benzamide] | 1 to 5 | > 40 | >80 | 0.1 to 1 | – |
| Cc1cc(-c2cccc(-c3csc(NC(=O)CNC(=O)c4cccc(S(=O)(=O)C(C)C)c4)n3)n2)ncn1 [Compound 117, 3-isopropylsulfonyl-N-[2-[[4-[6-(6-methylpyrimidin-4-yl)-2-pyridyl]thiazol-2-yl]amino]-2-oxo-ethyl]benzamide] | 0.1 to 1 | > 80 | >95 | < 0.1 | – |
| CC(C)S(=O)(=O)c1cccc(C(=O)NCC(=O)Nc2nc(-c3cccc(-c4cccc(C#N)n4)n3)cs2)c1 [Compound 118, N-[2-[[4-[6-(6-cyano-2-pyridyl)-2-pyridyl]thiazol-2-yl]amino]-2-oxo-ethyl]-3-isopropylsulfonyl-benzamide] | > 5 | < 30 | >70 | 0.1 to 1 | – |
| COc1nccc(-c2cccc(-c3csc(NC(=O)CNC(=O)c4cccc(S(=O)(=O)C(C)C)c4)n3)n2)n1 [Compound 119, 3-isopropylsulfonyl-N-[2-[[4-[6-(2-methoxypyrimidin-4-yl)-2-pyridyl]thiazol-2-yl]amino]-2-oxo-ethyl]benzamide] | 0.1 to 1 | > 80 | >95 | < 0.1 | – |
| Cc1nccc(-c2cccc(-c3csc(NC(=O)CNC(=O)c4cccc(S(=O)(=O)C(C)C)c4)n3)n2)n1 [Compound 121] | 1 to 5 | > 80 | >95 | 0.1 to 1 | – |
| COc1nc(C)cc(-c2cccc(-c3csc(NC(=O)CNC(=O)c4cccc(S(=O)(=O)C(C)C)c4)n3)c2)n1 [Compound 122, 3-isopropylsulfonyl-N-[2-[[4-[3-(2-methoxy-6-methyl-pyrimidin-4-yl)phenyl]thiazol-2-yl]amino]-2-oxoethyl]benzamide] | < 0.1 | > 95 | >95 | < 0.1 | – |
| COc1cc(-c2cccc(-c3csc(NC(=O)CNC(=O)c4cccc(S(=O)(=O)C(C)C)c4)n3)c2)nc(C)n1 [Compound 123, 3-isopropylsulfonyl-N-[2-[[4-[3-(6-methoxy-2-methyl-pyrimidin-4-yl)phenyl]thiazol-2-yl]amino]-2-oxo-ethyl]benzamide] | 0.1 to 1 | > 80 | >95 | < 0.1 | – |
| CC(C)S(=O)(=O)c1cccc(C(=O)NCC(=O)Nc2nc(-c3cccc(-c4ccnc(CN)c4)c3)cs2)c1 [Compound 124, N-[2-[[4-[3-[2-(aminomethyl)-4-pyridyl]phenyl]thiazol-2-yl]amino]-2-oxo-ethyl]-3-isopropylsulfonyl-benzamide] | 1 to 5 | > 70 | >90 | 0.1 to 1 | – |
| Cc1ccc(C(=O)NCC(=O)Nc2nc(-c3cccc(N4C[C@@H](C)O[C@@H](C)C4)c3)cs2)cc1S(=O)(=O)C(C)C [Compound 125, N-(2-((4-(3-((cis)-2,6-dimethylmorpholino)phenyl)thiazol-2-yl)amino)-2-oxoethyl)-3-(isopropylsulfonyl)-4-methylbenzamide] | 0.1 to 1 | > 80 | >95 | < 0.1 | – |
| CC(C)S(=O)(=O)c1cccc(C(=O)NCC(=O)Nc2nc(-c3cccc(N4CCOCC4)c3)cs2)c1 [Compound 126, 3-isopropylsulfonyl-N-[2-[[4-(3-morpholinophenyl)thiazol-2-yl]amino]-2-oxoethyl]benzamide] | 1 to 5 | > 60 | >80 | 0.1 to 1 | – |
| Cc1cc(-c2cccc(-c3csc(NC(=O)CNC(=O)c4cccc(S(=O)(=O)C(C)C)c4)n3)c2)ncn1 [Compound 127, 3-isopropylsulfonyl-N-[2-[[4-[3-(6-methylpyrimidin-4-yl)phenyl]thiazol-2-yl]amino]-2-oxoethyl] benzamide] | 0.1 to 1 | > 90 | >95 | < 0.1 | – |
| C[C@@H]1CN(c2cccc(-c3csc(NC(=O)CNC(=O)c4ccc5c(c4)S(=O)(=O)CCCC5)n3)c2)C[C@H](C)O1 [Compound 128, N-(2-((4-(3-((cis)-2,6-dimethylmorpholino)phenyl)thiazol-2-yl)amino)-2-oxoethyl)-2,3,4,5-tetrahydrobenzo[b]thiepine-8-carboxamide 1,1-dioxide] | < 0.1 | > 95 | >95 | < 0.1 | – |
| O=C(CNC(=O)c1ccc2c(c1)S(=O)(=O)CCCC2)Nc1nc(-c2cccc(-c3ccncc3)c2)cs1 [Compound 129, 1,1-dioxo-N-[2-oxo-2-[[4-[3-(4-pyridyl)phenyl]thiazol-2-yl]amino]ethyl]-2,3,4,5-tetrahydro-1benzothiepine-8-carboxamide] | < 0.1 | > 95 | >95 | < 0.1 | – |
| CN1CC=Cc2ccc(C(=O)NCC(=O)Nc3nc(-c4cccc(-c5ccncc5)c4)cs3)cc2S1(=O)=O [Compound 130, 2-methyl-1,1-dioxo-N-[2-oxo-2-[[4-[3-(4-pyridyl)phenyl]thiazol-2-yl]amino]ethyl]-3H-1,2-benzothiazepine-8-carboxamide] | > 5 | < 30 | >60 | 0.1 to 1 | – |
| CN1CCCc2ccc(C(=O)NCC(=O)Nc3nc(-c4cccc(-c5ccncc5)c4)cs3)cc2S1(=O)=O [Compound 131, 2-methyl-1,1-dioxo-N-[2-oxo-2-[[4-[3-(4-pyridyl)phenyl]thiazol-2-yl]amino]ethyl]-4,5-dihydro-3H-1,2-benzothiazepine-8-carboxamide] | 0.1 to 1 | > 70 | >95 | < 0.1 | – |
| C[C@@H]1CN(c2cccc(-c3csc(NC(=O)CNC(=O)c4cccc([C@@]5(O)CCOC5)c4)n3)n2)C[C@H](C)O1 [Compound 134, N-[2-[[4-[6-[(cis)-2,6-dimethylmorpholin-4-yl]-2-pyridyl]thiazol-2-yl]amino]-2-oxo-ethyl]-3-[(3S)-3-hydroxytetrahydrofuran-3-yl]benzamide] | 1 to 5 | > 60 | >80 | 0.1 to 1 | – |
